From PubChem BioAssay AID2060906 (Molecular Pharmacology Branch, DTP, NCI, 2025)
pIC50: −log10 of the molar value.

System: 485176-168-R4-J1-PDC complex spheroid growth
Assay: Anticancer human tumor 485176-168-R4-J1-PDC patient-derived pancreatic adenocarcinoma cell line growth inhibition [RAS]
Details: for viability, T/C: stronger effect = lower value
Method in brief: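 Multi-cell-type spheroids: tumor cells plus HUVEC endothelial cells and mesenchymal stem cells. RAS-pathway inhibitors were combined with targeted agents, each dosed in half-log steps down from clinical Cmax, or from 10 microM when Cmax was unknown.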

[1] = curve of first compound, second compound 0.000949 µM
[2] = curve of first compound, second compound 0.003 µM
[3] = curve of first compound, second compound 0.00949 µM
[4] = curve of first compound, second compound 0.03 µM
[5] = curve of first compound, second compound 0.0949 µM
[6] = curve of first compound, second compound 0.3 µM
[7] = second compound 0.000949 µM, first compound 0.0316 µM
[8] = second compound 0.000949 µM, first compound 0.1 µM
[9] = second compound 0.000949 µM, first compound 0.316 µM
[10] = second compound 0.000949 µM, first compound 1 µM
[11] = second compound 0.003 µM, first compound 0.0316 µM
[12] = second compound 0.003 µM, first compound 0.1 µM
[13] = second compound 0.003 µM, first compound 0.316 µM
[14] = second compound 0.003 µM, first compound 1 µM
[15] = second compound 0.00949 µM, first compound 0.0316 µM
[16] = second compound 0.00949 µM, first compound 0.1 µM
[17] = second compound 0.00949 µM, first compound 0.316 µM
[18] = second compound 0.00949 µM, first compound 1 µM
[19] = second compound 0.03 µM, first compound 0.0316 µM
[20] = second compound 0.03 µM, first compound 0.1 µM
[21] = second compound 0.03 µM, first compound 0.316 µM
[22] = second compound 0.03 µM, first compound 1 µM
[23] = second compound 0.0949 µM, first compound 0.0316 µM
[24] = second compound 0.0949 µM, first compound 0.1 µM
[25] = second compound 0.0949 µM, first compound 0.316 µM
[26] = second compound 0.0949 µM, first compound 1 µM
[27] = second compound 0.3 µM, first compound 0.0316 µM
[28] = second compound 0.3 µM, first compound 0.1 µM
[29] = second compound 0.3 µM, first compound 0.316 µM
[30] = second compound 0.3 µM, first compound 1 µM
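Also: spheroids exposed to compounds for seven days before readout.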
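For viability, T/C in this document: luminescence viability expressed relative to DMSO vehicle wells set as 100%.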

CC1(O)CCCC1n1c(=O)c(C(F)F)cc2cnc(NC3CCN(S(C)(=O)=O)CC3)nc21 (centres undefined) + CCn1c(-c2cccnc2C(C)OC)c2c3cc(ccc31)N1CCOC(CC(NC(=O)C(C(C)C)N(C)C(=O)C3(F)CCN(C(=O)C#CC(C)(C)N(C)C)CC3)C(=O)N3CCCC(N3)C(=O)OCC(C)(C)C2)C1
pIC50 [1]: 5.47
pIC50 [2]: 5.50
pIC50 [3]: 5.47
pIC50 [4]: 5.48
pIC50 [5]: 5.48
pIC50 [6]: 5.77
viability, T/C [7]: 114%
viability, T/C [8]: 75%
viability, T/C [9]: 70.6%
viability, T/C [10]: 78.2%
viability, T/C (second compound 0.000949 µM, first compound 3.16 µM): 60.8%
viability, T/C (second compound 0.000949 µM, first compound 10 µM): 4.58%
viability, T/C [11]: 103%
viability, T/C [12]: 92.7%
viability, T/C [13]: 76.6%
viability, T/C [14]: 72.8%
viability, T/C (second compound 0.003 µM, first compound 3.16 µM): 57%
viability, T/C (second compound 0.003 µM, first compound 10 µM): 3.48%
viability, T/C [15]: 90.4%
viability, T/C [16]: 74.7%
viability, T/C [17]: 60.6%
viability, T/C [18]: 69.8%
viability, T/C (second compound 0.00949 µM, first compound 3.16 µM): 57%
viability, T/C (second compound 0.00949 µM, first compound 10 µM): 3.15%
viability, T/C [19]: 110%
viability, T/C [20]: 78.7%
viability, T/C [21]: 87.2%
viability, T/C [22]: 65.9%
viability, T/C (second compound 0.03 µM, first compound 3.16 µM): 63.5%
viability, T/C (second compound 0.03 µM, first compound 10 µM): 2.51%
viability, T/C [23]: 89.2%
viability, T/C [24]: 76.2%
viability, T/C [25]: 69.6%
viability, T/C [26]: 68.1%
viability, T/C (second compound 0.0949 µM, first compound 3.16 µM): 56.1%
viability, T/C (second compound 0.0949 µM, first compound 10 µM): 2.02%
viability, T/C [27]: 78.7%
viability, T/C [28]: 70.5%
viability, T/C [29]: 58.1%
viability, T/C [30]: 54.6%
viability, T/C (second compound 0.3 µM, first compound 3.16 µM): 47.8%
viability, T/C (second compound 0.3 µM, first compound 10 µM): 3.3%

C=CC(=O)Nc1cc(Nc2nccc(-c3cn(C)c4ccccc34)n2)c(OC)cc1N(C)CCN(C)C + CCn1c(-c2cc(N3CCN(C)CC3)cnc2C(C)OC)c2c3cc(ccc31)-c1csc(n1)CC(NC(=O)C1CC1C)C(=O)N1CCCC(N1)C(=O)OCC(C)(C)C2
pIC50 [1]: < 6.00
pIC50 [2]: < 6.00
pIC50 [3]: < 6.00
pIC50 [4]: < 6.00
pIC50 [5]: < 6.00
pIC50 [6]: < 6.00
viability, T/C (second compound 0.000949 µM, first compound 0.00316 µM): 88.1%
viability, T/C (second compound 0.000949 µM, first compound 0.01 µM): 91.4%
viability, T/C [7]: 95.6%
viability, T/C [8]: 89.9%
viability, T/C [9]: 79.7%
viability, T/C [10]: 69.4%
viability, T/C (second compound 0.003 µM, first compound 0.00316 µM): 92.8%
viability, T/C (second compound 0.003 µM, first compound 0.01 µM): 80.3%
viability, T/C [11]: 78.6%
viability, T/C [12]: 76%
viability, T/C [13]: 86.4%
viability, T/C [14]: 60.5%
viability, T/C (second compound 0.00949 µM, first compound 0.00316 µM): 91.8%
viability, T/C (second compound 0.00949 µM, first compound 0.01 µM): 93.3%
viability, T/C [15]: 73.7%
viability, T/C [16]: 94%
viability, T/C [17]: 83.2%
viability, T/C [18]: 62.9%
viability, T/C (second compound 0.03 µM, first compound 0.00316 µM): 70%
viability, T/C (second compound 0.03 µM, first compound 0.01 µM): 87.7%
viability, T/C [19]: 85.2%
viability, T/C [20]: 90.6%
viability, T/C [21]: 63.4%
viability, T/C [22]: 57.9%
viability, T/C (second compound 0.0949 µM, first compound 0.00316 µM): 77.8%
viability, T/C (second compound 0.0949 µM, first compound 0.01 µM): 83%
viability, T/C [23]: 81.2%
viability, T/C [24]: 61.9%
viability, T/C [25]: 83.3%
viability, T/C [26]: 64.3%
viability, T/C (second compound 0.3 µM, first compound 0.00316 µM): 81.6%
viability, T/C (second compound 0.3 µM, first compound 0.01 µM): 72.9%
viability, T/C [27]: 73.4%
viability, T/C [28]: 84.2%
viability, T/C [29]: 71.4%
viability, T/C [30]: 50.2%

CC(Nc1ccc2c(c1)OCCn1cc(N3C(=O)OCC3C(F)F)nc1-2)C(N)=O (centres undefined)
viability, T/C (compound 0.0316 µM): 97.9% [middle of 4 runs]
viability, T/C (compound 0.1 µM): 89.2% [middle of 4 runs]
viability, T/C (compound 0.316 µM): 84.7% [middle of 4 runs]
viability, T/C (compound 1 µM): 75.3% [middle of 4 runs]
viability, T/C (compound 3.16 µM): 69.1% [middle of 4 runs]
viability, T/C (compound 10 µM): 55.5% [middle of 4 runs]
pIC50 (curve of compound): < 5.00

CCc1c2c(nc3ccc(O)cc13)-c1cc3c(c(=O)n1C2)COC(=O)[C@]3(O)CC
viability, T/C (compound 0.003 µM): 86.2% [middle of 4 runs]
viability, T/C (compound 0.00949 µM): 66% [middle of 4 runs]
viability, T/C (compound 0.03 µM): 36.5% [middle of 4 runs]
viability, T/C (compound 0.0949 µM): 14% [middle of 4 runs]
viability, T/C (compound 0.3 µM): 7.88% [middle of 4 runs]
IC50 (curve of compound): 17.9 nM [middle of 4 runs]

CC(=O)OC12COC1CC(O)C1(C)C(=O)C(O)C3=C(C)C(OC(=O)C(O)C(NC(=O)OC(C)(C)C)c4ccccc4)CC(O)(C(OC(=O)c4ccccc4)C21)C3(C)C (centres undefined) + C=CC(=O)N1CCN(c2nc(OCC3CCCN3C)nc3c(F)c(-c4nc(N)cc(C)c4C(F)(F)F)c(Cl)cc23)C(C)C1
pIC50 (curve of first compound, second compound 0.00316 µM): > 7.50
pIC50 (curve of first compound, second compound 0.01 µM): > 7.50
pIC50 (curve of first compound, second compound 0.0316 µM): > 7.50
pIC50 (curve of first compound, second compound 0.1 µM): > 7.50
pIC50 (curve of first compound, second compound 0.316 µM): > 7.50
pIC50 (curve of first compound, second compound 1 µM): > 7.50
viability, T/C (second compound 0.00316 µM, first compound 0.0316 µM): 13.2%
viability, T/C (second compound 0.00316 µM, first compound 0.1 µM): 9.9%
viability, T/C (second compound 0.00316 µM, first compound 0.316 µM): 13.1%
viability, T/C (second compound 0.00316 µM, first compound 1 µM): 11.3%
viability, T/C (second compound 0.00316 µM, first compound 3.16 µM): 15.8%
viability, T/C (second compound 0.00316 µM, first compound 10 µM): 18.9%
viability, T/C (second compound 0.01 µM, first compound 0.0316 µM): 17%
viability, T/C (second compound 0.01 µM, first compound 0.1 µM): 12.3%
viability, T/C (second compound 0.01 µM, first compound 0.316 µM): 11.4%
viability, T/C (second compound 0.01 µM, first compound 1 µM): 11.7%
viability, T/C (second compound 0.01 µM, first compound 3.16 µM): 13.7%
viability, T/C (second compound 0.01 µM, first compound 10 µM): 16.3%
viability, T/C (second compound 0.0316 µM, first compound 0.0316 µM): 15.2%
viability, T/C (second compound 0.0316 µM, first compound 0.1 µM): 13.6%
viability, T/C (second compound 0.0316 µM, first compound 0.316 µM): 12%
viability, T/C (second compound 0.0316 µM, first compound 1 µM): 15.1%
viability, T/C (second compound 0.0316 µM, first compound 3.16 µM): 13.3%
viability, T/C (second compound 0.0316 µM, first compound 10 µM): 17.9%
viability, T/C (second compound 0.1 µM, first compound 0.0316 µM): 13.3%
viability, T/C (second compound 0.1 µM, first compound 0.1 µM): 13.8%
viability, T/C (second compound 0.1 µM, first compound 0.316 µM): 10.5%
viability, T/C (second compound 0.1 µM, first compound 1 µM): 11.3%
viability, T/C (second compound 0.1 µM, first compound 3.16 µM): 16.7%
viability, T/C (second compound 0.1 µM, first compound 10 µM): 17.9%
viability, T/C (second compound 0.316 µM, first compound 0.0316 µM): 18.4%
viability, T/C (second compound 0.316 µM, first compound 0.1 µM): 13.3%
viability, T/C (second compound 0.316 µM, first compound 0.316 µM): 11.8%
viability, T/C (second compound 0.316 µM, first compound 1 µM): 9.75%
viability, T/C (second compound 0.316 µM, first compound 3.16 µM): 15.5%
viability, T/C (second compound 0.316 µM, first compound 10 µM): 19.4%
viability, T/C (second compound 1 µM, first compound 0.0316 µM): 12.6%
viability, T/C (second compound 1 µM, first compound 0.1 µM): 9.69%
viability, T/C (second compound 1 µM, first compound 0.316 µM): 9.77%
viability, T/C (second compound 1 µM, first compound 1 µM): 9.87%
viability, T/C (second compound 1 µM, first compound 3.16 µM): 15.3%
viability, T/C (second compound 1 µM, first compound 10 µM): 18.2%
